Results taken from patent publication US7919465B2, “Peptide mimotopes that inhibits interaction between a platelet receptor and a platelet receptor ligand” (priority 2006, dated 2011).
Like-named read-outs stand apart in the source and are kept apart here. Non-standard residues stand in square brackets, D forms with d. No end group written: not given here.

What was measured:
[1] = tested on: platelets; assay: Aggregometry, % aggregation on activation; format: cell-based, human; parameters: concentration or dose not given beside the values; conditions: ristocetin activation
Procedure: (§1) In order to prepare human platelets for testing, as approved by Canadian Blood Services' Ethics Board, samples of whole blood were drawn from healthy, consenting donors into 2.7-4.0 mL citrated tubes (BD, USA). Platelet rich plasma (PRP) was prepared from whole blood by centrifugation in a Beckman (CS-6R) bench-top centrifuge (r=203.57 mm, Beckman Coulter, USA) 164×g for 15 minutes. PRP from a number of unrelated donors were evaluated on an Adiva 120 Hematology Analyzer (Bayer, Canada) and standardized to a concentration of 300×10^9 platelets/L in HEPES buffered saline (HBS, 10 mM HEPES, 150 mM NaCl, pH 7.4).
(§2) The effect of native HPG, free peptides, and peptide-conjugated HPG on activated platelets using modifications of the above assay systems was also examined. Platelets were treated with either 5 μL 4.2 mg/mL ristocetin (Chrono-Log, USA) or 100 U thrombin (T6884, Sigma-Aldrich, Canada) with 5 μL GPRP fibrin inhibitor (G5779, Sigma-Aldrich, Canada) dissolved in HBS. This was done to determine whether the peptides and the peptide-conjugates can mitigate vWf and thrombin mediated platelet effects. Controls included incubation with mouse IgG-FITC/IgG-PE (Beckman-Coulter, Canada) of the same isotype, and/or omitting the conjugate. As a result, native HPG, free peptides, and peptide-conjugated HPG neither did they increase vWf binding to resting platelets (Table 5) or they could trigger platelet activation.
The inhibition of platelet agglutination by vWf was observed both by light microscopy and lumiaggregometry (Table 5). No clumping was seen when resting platelets were incubated with free peptides, native HPG, or peptide-conjugated HPG.

[2] = tested on: vWf binding to resting platelets; assay: Flow cytometry of vWf binding to resting platelets; format: cell-based, human
Procedure: as §1
(§3) 40 μL aliquots of HBS were mixed with 5 μL PRP and 5 μL of the material to be tested: 500 kDa native HPG; free peptides; or peptide-conjugated HPG at 1.0×10^−3 M to 1.0×10^−9 M. After 40 minutes of incubation at ambient temperature, 5 μL 0.01 mg/mL FITC-conjugated polyclonal sheep anti-human vWf IgG (Abcam, USA) or 5 μL of 2 mg/mL PE-conjugated monoclonal mouse anti-human CD62 IgG (Beckman-Coulter, Canada) was added and incubation was continued in the dark for 30 min. Thereafter the samples were diluted and fixed with 1.0 mL 0.2% formolsaline (0.2% formaldehyde, 150 mM NaCl, pH 7.20) before analysis on a FACS Canto flow cytometer (BD, USA).
as §2

[3] = biological target: T1, GPIb-vWf interaction (Homo sapiens, UniProt P07359); assay: Flow cytometry inhibition of vWf binding to ristocetin-activated platelets in PRP; format: cell-based
T1 construct: Platelet rich plasma (PRP) was prepared from whole blood by centrifugation; endogenous in cells
Procedure: as §1
Thereafter the samples were diluted and fixed with 1.0 mL 0.2% formolsaline (0.2% formaldehyde, 150 mM NaCl, pH 7.20) before analysis on a FACS Canto flow cytometer (BD, USA).
The effect of native HPG, free peptides, and peptide-conjugated HPG on activated platelets using modifications of the above assay systems was also examined. Platelets were treated with either 5 μL 4.2 mg/mL ristocetin (Chrono-Log, USA) or 100 U thrombin (T6884, Sigma-Aldrich, Canada) with 5 μL GPRP fibrin inhibitor (G5779, Sigma-Aldrich, Canada) dissolved in HBS. […] Controls included incubation with mouse IgG-FITC/IgG-PE (Beckman-Coulter, Canada) of the same isotype, and/or omitting the conjugate.

[4] = tested on: CD62/P-selectin on platelet surfaces; assay: Flow cytometry of surface CD62 expression on platelets; format: cell-based, human; conditions: for Surface CD62 Expression, Activated Platelets: thrombin-activated platelets
Procedure: as §1, §3
as §2, with “activation. […]” for “activation.”

[5] = biological target: purified vWf (Homo sapiens, UniProt P04275); assay: Random D-peptide array on cellulose membrane probed with purified vWf; format: binding; conditions: detected by HRP anti-human-vWf IgG
From the text: Random D-amino acid peptides (15 mer) were synthesized and probed with vWf to detect random sequences capable of binding vWf.
Random peptide arrays of 1120 peptides made of D-amino acids were synthesized on a cellulose membrane using an AutoSpot ASP 222 peptide synthesizer (ABiMED, Langenfeld, Germany). Resulting replicate libraries of 15-mer sequences were probed for vWf binding function by exposing the membranes to purified vWf after blocking with skim milk to prevent non-specific binding of horseradish peroxidase labelled goat anti-human-vWf IgG. The chemiluminescent substrate from the Amersham Pharmacia ECL kit detected positive spots that were recorded on photographic film. Negative controls consisted of probing the membranes with the antibodies without prior exposure of the membrane to purified vWf.
(§4) Peptides on random 15-mer peptide arrays that were built of D-amino acids were selected on the basis of their ability to bind to vWf. Only four positive sequences were identified: D-pep1—[…] (SEQ ID NO:4); D-pep2—[…] (SEQ ID NO:5); D-pep3—[…] (SEQ ID NO:6); and D-pep4—[…] (SEQ ID NO:7). D-pep2 (SEQ ID NO:5), D-pep3 (SEQ ID NO:6) and D-pep4 (SEQ ID NO:7) were synthesized for laboratory experimentation. D-pep3 (SEQ ID NO:6), 10 mg, was synthesized by UBC's Peptide Proteomic Centre and was solubilized in Hepes-saline buffer, pH 7.4 and used at 0.1-0.5 mg/mL. Fresh washed platelets ([…]) in Hepes buffer were added and agglutination was initiated by 1.25 mg/mL ristocetin (Sigma). Agglutination times and levels were monitored both microscopically and on an aggregometer (ChronoLog) as described by the manufacturer.

[6] = tested on: GPIb-vWf-mediated platelet agglutination; assay: Inhibition of ristocetin-mediated agglutination of washed platelets (microscopy, aggregometer); format: cell-based, human; conditions: for % agglutination (aggregometry): at 10 minutes, washed platelets, ristocetin
Procedure: as §4

[7] = expressed as peptide concentration
[8] = inhibition of platelet-vWf binding, molar concentration of peptide or conjugate
[9] = inhibition of platelet-vWf binding, molar concentration of peptide or conjugate, read-out: Ic50

CGGGGGGRDKLGIYAHS [LR-pep]
Aggregometry % Aggregation on Activation [1]: 5 ± 5% | vWf Binding, Resting Platelets [2]: 25 ± 12′ | IC50 [3]: 34 µM | Surface CD62 Expression, Resting Platelets [4]: 19 ± 2 | Surface CD62 Expression, Activated Platelets [4]: 70 ± 5″

D10: HPG 500 kDa conjugate with about 10 D-peptides per HPG molecule ([dC]GGGGGG[dR][dD][dK][dL]G[dI][dY][dA][dH][dS]; also: coupled through vinyl sulfone to 500 kDa hyperbranched polyglycerol (HPG), about 10 peptides per HPG)
Aggregometry % Aggregation on Activation [1]: 82 ± 5% | vWf Binding, Resting Platelets [2]: 24 ± 2′ | Peptide Concentration at Ic50 (M) [3, 7]: No activity | Ic50 (M) [3, 8]: No activity | Surface CD62 Expression, Resting Platelets [4]: 14 ± 7 | Surface CD62 Expression, Activated Platelets [4]: 70 ± 6″

D100: HPG 500 kDa conjugate with about 100 D-peptides per HPG molecule ([dC]GGGGGG[dR][dD][dK][dL]G[dI][dY][dA][dH][dS]; also: coupled through vinyl sulfone to 500 kDa hyperbranched polyglycerol (HPG), about 100 peptides per HPG)
Aggregometry % Aggregation on Activation [1]: 73 ± 5% | vWf Binding, Resting Platelets [2]: 26 ± 3′ | Peptide Concentration at Ic50 (M) [3, 7]: No activity | Ic50 (M) [3, 8]: No activity | Surface CD62 Expression, Resting Platelets [4]: 18 ± 1 | Surface CD62 Expression, Activated Platelets [4]: 72 ± 1″

D-CGGGGGGRDKLGIYAHS [D-pep]
Aggregometry % Aggregation on Activation [1]: 80 ± 5% | vWf Binding, Resting Platelets [2]: 14 ± 8′ | Peptide Concentration at Ic50 (M) [3, 7]: No activity | Ic50 (M) [3, 8]: No activity | Surface CD62 Expression, Resting Platelets [4]: 18 ± 2 | Surface CD62 Expression, Activated Platelets [4]: 68 ± 10″

D-CGGGGGGRDKLGIYAHS [DR-pep]
Aggregometry % Aggregation on Activation [1]: 78 ± 5% | vWf Binding, Resting Platelets [2]: 28 ± 3′ | Peptide Concentration at Ic50 (M) [3, 7]: No activity | Ic50 (M) [3, 8]: No activity | Surface CD62 Expression, Resting Platelets [4]: 27 ± 18 | Surface CD62 Expression, Activated Platelets [4]: 72 ± 3″

DSCPRDWDNNFLFFE ([dD][dS][dC][dP][dR][dD][dW][dD][dN][dN][dF][dL][dF][dF][dE]) [D-pep4]
vWf binding on random 15-mer D-peptide array [5]: positive

L10: HPG 500 kDa conjugate with about 10 L-peptides per HPG molecule (CGGGGGGSHAYIGLKDR; also: conjugated to HPG 500 kDa, about 10 L-peptides per HPG molecule, site not given here)
vWf Binding, Resting Platelets [2]: 22 ± 5′ | inhibition of vWf binding to platelets (in words) [3]: effective inhibitors | IC50 ([3]; expressed as peptide concentration, read-out: Peptide Concentration at Ic50): 67 µM | IC50 [3, 9]: 6.7 µM | Surface CD62 Expression, Resting Platelets [4]: 17 ± 1 | Surface CD62 Expression, Activated Platelets [4]: 73 ± 5″

LR10: HPG conjugate with 10 L-retro peptides per HPG molecule (CGGGGGGRDKLGIYAHS; also: conjugated to HPG, 10 L-retro peptides per HPG molecule, site not given here)
vWf Binding, Resting Platelets [2]: 24 ± 2′ | IC50 [3, 9]: 4.1 µM | Surface CD62 Expression, Resting Platelets [4]: 17 ± 2 | Surface CD62 Expression, Activated Platelets [4]: 72 ± 4″

LR100: HPG 500 kDa conjugate with about 100 L-retro peptides per HPG molecule (CGGGGGGRDKLGIYAHS; also: conjugated to HPG 500 kDa, about 100 L-retro peptides per HPG molecule, site not given here)
vWf Binding, Resting Platelets [2]: 22 ± 2′ | inhibition of vWf binding to platelets (in words) [3]: effective inhibitors | IC50 [3, 9]: 0.49 µM | Surface CD62 Expression, Resting Platelets [4]: 18 ± 1 | Surface CD62 Expression, Activated Platelets [4]: 73 ± 2″

RSARMQVCWNAFKNR ([dR][dS][dA][dR][dM][dQ][dV][dC][dW][dN][dA][dF][dK][dN][dR]) [D-pep3]
% agglutination (aggregometry) ([6]; 0.1 mg/mL): 69% | % agglutination (aggregometry) ([6]; 0.25 mg/mL): 28% | % agglutination (aggregometry) ([6]; 0.5 mg/mL): 13% | ristocetin-mediated platelet agglutination by microscopy ([6]; 100-fold excess of peptide based on plasma vWf content, controls agglutinated within 5 minutes): prevented visible agglutination at 20 minutes | vWf binding on random 15-mer D-peptide array [5]: positive

VSRQNGKQYWAIKEG ([dV][dS][dR][dQ][dN]G[dK][dQ][dY][dW][dA][dI][dK][dE]G) [D-pep1]
vWf binding on random 15-mer D-peptide array [5]: positive

WQNEGTHVLSRCYEC ([dW][dQ][dN][dE]G[dT][dH][dV][dL][dS][dR][dC][dY][dE][dC]; cysteine pairing not given here) [D-pep2]
vWf binding on random 15-mer D-peptide array [5]: positive

bovine serum albumin [reference compound]
% agglutination (aggregometry) ([6]; 0.5 mg/mL): 55%
